{
  "source": "paper PMC9886266",
  "about": "“New [1,2,4]triazolo[4,3-c]quinazolines as intercalative Topo II inhibitors: Design, synthesis, biological evaluation, and in silico studies” (PLOS ONE, 2023)",
  "key": {"BAX/Bcl-2 ratio": {"tested_on": "BAX/Bcl-2 ratio", "experiment": "Western blot, BAX/Bcl-2 ratio", "assay_type": "cell-based, human", "details": "HCT-116, 2.44 μM, 48 h; control = 1.00", "method": "In comparison to the control, compound 16 elevated the level of the proapoptotic protein (BAX) by 2.18 times. […] Furthermore, compound 16 enhanced the BAX/Bcl-2 ratio by 4.38-fold in comparison to control cells.\nThe effects of compound 16 on the expression of BAX, and Bcl‐2 were determined using Western blot analysis [62–64]as described in Electronic Supplementary Material S2.7 in S1 Appendix. […]\nfor 48 h. Then, the cells were fixed in 70% ethanol at 4 °C for 12 h. After that, the cells were washed with cold PBS, incubated with 100 μl RNase A at 37 °C for 30 min, and stained with 400 μl PI in the dark at room temperature for further 30 min. The stained cells were measured using Epics XL-MCL™ Flow Cytometer (Beckman Coulter), and the data were analyzed using Flowing software (version 2.5.1, Turku Centre for Biotechnology, Turku, Finland).\nS2.6. Flow cytometry analysis for apoptosis\nFlow cytometry cell apoptosis analysis was used to investigate the apoptotic effect of the synthesized compounds. […] The stained cells were measured using Epics XL-MCL™ Flow Cytometer and analyzed using Flowing software. […]\nThe proteins expression of BAX, and Bcl‐2 were determined using Western blot analysis. […] Total protein concentrations in the supernatant were determined colorimetrically using the Pierce 660 nm Protein Assay method (Thermo Fisher Scientific, Rockford, IL), with BSA as the standard. […]"}, "Vero cells": {"tested_on": "Vero cells", "experiment": "In vitro cytotoxicity against normal cell line", "assay_type": "cell-based", "excerpt": "Although Vero cell are not human cell, it was reported that Vero cells can be used as normal cells to validate the toxicity of the synthesized compounds [43]."}, "HCT-116 cells": {"tested_on": "HCT-116 cells", "experiment": "Flow cytometry cell cycle analysis (propidium iodide)", "assay_type": "cell-based, human", "details": "HCT-116, 2.44 μM, 48 h, mean ± SEM"}},
  "note": "pIC50: −log10 of the molar value.",
  "data": [
    {"molecule": "CCCNc1nc2ccccc2c2nnc(C(F)(F)F)n12", "note": "[Compound 16, N-Propyl-3-(trifluoromethyl)-[1,2,4]triazolo[4,3-c]quinazolin-5-amine]", "values": [
      {"measurement": "Protein expression (normalized to β-actin) BAX/Bcl-2 ratio", "setting": "BAX/Bcl-2 ratio", "result": "4.38 ± 0.86"},
      {"measurement": "pIC50", "setting": "Vero cells; Chlorocebus sabaeus, Vero", "result": 4.20},
      {"measurement": "Selectivity: activity against HCT-116 compared with normal Vero cells", "setting": "Vero cells; Vero vs HCT-116", "result": 26, "unit": "fold"},
      {"measurement": "Selectivity: activity against HepG2 compared with normal Vero cells", "setting": "Vero cells; Vero vs HepG2", "result": 10, "unit": "fold"},
      {"measurement": "Toxicity to Vero cells less than that of sorafenib", "setting": "Vero cells; compared with sorafenib", "result": "about 2.5 fold"},
      {"measurement": "Cell cycle distribution % G2/M", "setting": "HCT-116 cells", "result": "36.89 ± 1.81", "unit": "%"},
      {"measurement": "Cell cycle distribution %G1", "setting": "HCT-116 cells", "result": "19.05 ± 1.38", "unit": "%"},
      {"measurement": "Cell cycle distribution %S", "setting": "HCT-116 cells", "result": "42.76 ± 2.48", "unit": "%"},
      {"measurement": "Cell cycle distribution %Sub-G1", "setting": "HCT-116 cells", "result": "1.30 ± 0.18", "unit": "%"}
    ]}
  ]
}
